Measured values from the supplement of paper PMC3493320.

These compounds were tested on NCI-H295R (assay: IC50 (antiproliferative, ATP content)). Settings: 48 h.
How it was run: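 Serum-free ITS-supplemented DMEM was used to seed 1500 adrenocortical carcinoma cells per well in 1536-well plates, which were cultured overnight. Eight final concentrations of each library compound, from 0.6 nM to 46 µM, were added by pin transfer, followed by 48 h at 37 °C in 5% CO2 and a CellTiter-Glo ATP read after 20 min at room temperature. Luminescence was set against vehicle and positive-control wells, and the IC50 was obtained by logistic curve fitting. Any compound with no concentration response was entered as above the top dose.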
`COC1=CC=C2[C@H]3Cc4ccc(OC)c5c4[C@@]2(CCN3C)[C@H]1O5` was tested, and the IC50 was greater than 46 µM.
In the case of `O=C(OC(C)C)/C(C(OC(C)C)=O)=C1SC=CS/1`, the IC50 is reported as greater than 46 µM.
In the case of `O=C(O)COc1ccccc1/C=N/NC(=O)c1ccncc1`, the IC50 is reported as greater than 46 µM.
`OC[C@H](CC)NC(=O)[C@@H]2/C=C1/c3cccc4N\C=C(\C[C@H]1N(C)C2)c34` showed an IC50 greater than 46 µM.
For `CCC(Cc1c(I)cc(I)c(N)c1I)C(=O)O` (stereo unspecified), the IC50 was greater than 46 µM.
`O=C1OC2(c3ccc([O-])cc3Oc3cc([O-])ccc32)c2ccccc21.[Na+].[Na+]` was tested, and the IC50 was greater than 46 µM.
Work on `CCCN(CCC)CCc1cccc2c1CC(=O)N2` yielded an IC50 greater than 46 µM.
In the case of `O=C(CCCN1CCC(C(=O)c2ccc(F)cc2)CC1)c1ccc(F)cc1`, the IC50 is reported as greater than 46 µM.
`CN1CCN(c2c(F)cc3c(=O)c(C(=O)O)cn4c3c2SCC4)CC1.Cl` showed an IC50 greater than 46 µM.
`Nc1ccc(S(=O)(=O)Nc2ccccn2)cc1` showed an IC50 greater than 46 µM.
Compound `CCCC(=O)Nc1ccc(OCC(O)CNC(C)C)c(C(C)=O)c1.Cl` (stereo unspecified) has an IC50 greater than 46 µM.
Work on `O=C2N1[C@]([C@@]([H])2NC(C3=C(C)ON=C3C(C(Cl)=CC=C4)=C4F)=O)([H])SC(C)(C)[C@@H]1[C@@]([O-])=O.O.[Na+]` yielded an IC50 greater than 46 µM.
Compound `O=P([O-])([O-])OC[C@@]1(O)O[C@H](COP(=O)([O-])O)[C@@H](O)[C@@H]1O.[Na+].[Na+].[Na+]` has an IC50 greater than 46 µM.
Compound `F[C@]2([C@](C)3CC4)[C@@H](O)C[C@]([C@](C5)([H])[C@@]([H])2CCC3=CC4=O)(C)[C@@]1([C@](CCl)=O)[C@@H]5OC(C)(C)O1` has an IC50 greater than 46 µM.
`CN(C(=O)CN(CCO)CC(=O)N(C)C(C)(C)Cc1ccccc1)C(C)(C)Cc1ccccc1` was tested, and the IC50 was greater than 46 µM.
With `CCCCCCCC(=O)OCC(O)CO` (stereo unspecified) the IC50 was greater than 46 µM.
With `CO[C@@H]1[C@H](OC(=O)/C=C/C=C/C=C/C=C/C(=O)O)CC[C@]2(CO2)[C@H]1[C@@]1(C)O[C@@H]1CC=C(C)C` the IC50 was greater than 46 µM.
Work on `O=C(O)c1ccc(OCCCOc2ccc(C(=O)O)cc2)cc1` yielded an IC50 greater than 46 µM.
Compound `CC(=O)O[C@H]1C[C@@]2(C)[C@@H](C[C@@H](O)[C@H]3[C@@]4(C)CC[C@@H](O)[C@@H](C)[C@@H]4CC[C@@]32C)/C1=C(\CCC=C(C)C)C(=O)[O-].[Na+]` has an IC50 greater than 46 µM.
Work on `Cl.Cl.NC(=O)C1(N2CCCCC2)CCN(CCCC(=O)c2ccc(F)cc2)CC1` yielded an IC50 greater than 46 µM.
Work on `COc1cc(C(=O)NCCCCCC(=O)O)cc(OC)c1OC` yielded an IC50 greater than 46 µM.
`O=c1oc2cc(O)ccc2s1` showed an IC50 greater than 46 µM.
`Cl.Nc1ccn([C@@H]2O[C@H](CO)[C@@H](O)C2(F)F)c(=O)n1` gave an IC50 greater than 46 µM.
`CC(=O)OC(C)C[N+](C)(C)C.[Cl-]` (stereo unspecified) was tested, and the IC50 was greater than 46 µM.
In the case of `Cc1ccc(S(=O)(=O)NC(=O)NC2CCCC2)cc1`, the IC50 is reported as greater than 46 µM.
With `NC[C@H]1O[C@H](O[C@H]2[C@H](O)[C@@H](O[C@H]3O[C@H](CO)[C@@H](O)[C@H](N)[C@H]3O)[C@H](N)C[C@@H]2N)[C@H](N)C[C@@H]1O` the IC50 was greater than 46 µM.
For `C[C@@H]1CC[C@@]2(OC1)O[C@H]1C[C@H]3[C@@H]4CC[C@H]5C[C@@H](O)CC[C@]5(C)[C@H]4CC(=O)[C@]3(C)[C@H]1[C@@H]2C`, the IC50 was greater than 46 µM.
In the case of `O=C1CN=C(c2ccccc2)c2cc(Cl)ccc2N1CC1CC1`, the IC50 is reported as greater than 46 µM.
`O=C(O)Cn1c(C(=O)Nc2nc(-c3ccccc3Cl)cs2)cc2ccccc21` was tested, and the IC50 was greater than 46 µM.
With `COc1cc(O)c(C(=O)c2ccccc2)cc1S(=O)(=O)O` the IC50 was greater than 46 µM.
With `OCc1ccccn1` the IC50 was greater than 46 µM.
`Clc1cccc(N2CCNCC2)c1` showed an IC50 greater than 46 µM.
For `CCOC(=O)c1cncn1C(C)c1ccccc1` (stereo unspecified), the IC50 was greater than 46 µM.
Work on `CC(=O)[C@H]1CC[C@H]2[C@@H]3CC[C@H]4C[C@H](O)CC[C@]4(C)[C@H]3C(=O)C[C@]12C` yielded an IC50 greater than 46 µM.
`NCCc1cc[nH]n1` showed an IC50 greater than 46 µM.
`CC(C)(C)OC(=O)c1ncn2c1[C@@H]1CCCN1C(=O)c1c(Br)cccc1-2` gave an IC50 greater than 46 µM.
`CS(=O)(=O)OCCCCOS(C)(=O)=O` was tested, and the IC50 was greater than 46 µM.
`O=[N+]([O-])c1ccccc1` showed an IC50 greater than 46 µM.
With `CC1(C)Oc2ccc(C#N)cc2[C@@H](N2CCCC2=O)[C@@H]1O` the IC50 was greater than 46 µM.
Work on `CC[N+](CC)(CC(=O)Nc1c(C)cccc1C)Cc1ccccc1.O=C([O-])c1ccccc1` yielded an IC50 greater than 46 µM.
`O=C1NN=C(C2=CC=C(C=C2)N/N=C(C#N)/C#N)[C@@H](C1)C` was tested, and the IC50 was greater than 46 µM.
For `CCCC(C)(COC(N)=O)COC(=O)NC1CC1` (stereo unspecified), the IC50 was greater than 46 µM.
`C1CCc2nnnn2CC1` was tested, and the IC50 was greater than 46 µM.
For `Nc1ncn([C@H]2C[C@H](O)[C@@H](CO)O2)c(=O)n1`, the IC50 was greater than 46 µM.
Compound `OC[C@H]1OC(O)[C@H](O)[C@@H](O)[C@H]1O` (stereo partly specified) has an IC50 greater than 46 µM.
For `CCOc1ccc(/N=C(\C)Nc2ccc(OCC)cc2)cc1`, the IC50 was greater than 46 µM.
Compound `C[C@@H]1O[C@@H](OC[C@H]2O[C@@H](Oc3c(-c4ccc(O)c(O)c4)oc4cc(O)cc(O)c4c3=O)[C@H](O)[C@@H](O)[C@@H]2O)[C@H](O)[C@H](O)[C@H]1O` has an IC50 greater than 46 µM.
`COc1ccccc1N1CCN(CCCCNC(=O)c2ccc(-c3ccc(C(C)=O)cc3)cc2)CC1` showed an IC50 greater than 46 µM.
Work on `OC(Cn1cncn1)(Cn1cncn1)c1ccc(F)cc1F` yielded an IC50 greater than 46 µM.
`Nc1nc(N)nc(-c2cc(Cl)ccc2Cl)n1.O=C(O)/C=C\C(=O)O` was tested, and the IC50 was greater than 46 µM.
In the case of `O=C(C)N(CC4)CCN4C(C=C5)=CC=C5OC[C@]2([H])O[C@@](OC2)(CN3C=NC=C3)[C@@]1=CC=C(Cl)C=C1Cl`, the IC50 is reported as greater than 46 µM.
Compound `CNNCc1ccc(C(=O)NC(C)C)cc1.Cl` has an IC50 greater than 46 µM.
`CCOC(=O)c1ncn2c1CN(C)C(=O)c1cc(F)ccc1-2` gave an IC50 greater than 46 µM.
In the case of `Brc1c(NC2=NCCN2)ccc2nccnc12`, the IC50 is reported as greater than 46 µM.
Work on `O=C(OOC(=O)c1ccccc1)c1ccccc1` yielded an IC50 greater than 46 µM.
`CC1(C)NC(=O)N(c2ccc([N+](=O)[O-])c(C(F)(F)F)c2)C1=O` was tested, and the IC50 was greater than 46 µM.
`O=C1CC2(CCCC2)CC(=O)N1CCCCN1CCN(c2ncccn2)CC1` gave an IC50 greater than 46 µM.
`CCCCC/C=C\C/C=C\CCCCCCCC(=O)OCC` showed an IC50 greater than 46 µM.
Compound `C[C@@]1(CC2)[C@H](OC(C)=O)C[C@H]2[C@](C)1C` has an IC50 greater than 46 µM.
For `O=C(O)c1ccc2[nH]cc(CCCCN3CC=C(c4ccccc4)CC3)c2c1`, the IC50 was greater than 46 µM.
For `CN1C(=O)CN2CCc3ccccc3C2c2cc(Cl)ccc21` (stereo unspecified), the IC50 was greater than 46 µM.
`CCCCCCCCOc1ccc(C(=O)c2ccccc2)c(O)c1` was tested, and the IC50 was greater than 46 µM.
In the case of `Cl.c1cc2c(c(N3CCNCC3)c1)OCCO2`, the IC50 is reported as greater than 46 µM.
In the case of `NCCCC(=O)O`, the IC50 is reported as greater than 46 µM.
With `O=C1c2ccccc2C(=O)C1c1ccc(F)cc1` the IC50 was greater than 46 µM.
`CN1C(C(=O)Nc2ccccn2)=C(O)c2sccc2S1(=O)=O` was tested, and the IC50 was greater than 46 µM.
With `CCN(CC)CCOC(=O)c1cccnc1.O=C(O)CC(O)(CC(=O)O)C(=O)O` the IC50 was greater than 46 µM.
With `O=[C@]([C@H]2N(CCC)CCCC2)NC1=C(C)C=CC=C1C.Cl` the IC50 was greater than 46 µM.
Compound `O=C1[C@](NC(C3S\C(S3)=C(C(O)=O)/C(N)=O)=O)(OC)[C@]2([H])N1C(C(O)=O)=C(CSC4=NN=NN4C)CS2` (stereo partly specified) has an IC50 greater than 46 µM.
With `COc1cc(-c2ccc(=O)[nH]n2)ccc1OC(F)F` the IC50 was greater than 46 µM.
`CS(=O)(=O)OCC(O)C(O)COS(C)(=O)=O` (stereo unspecified) gave an IC50 greater than 46 µM.
`CCCCCCCCCC(=O)O[C@H]2CC[C@H]3[C@@H]4CC\C1=C\C(=O)CC[C@@H]1[C@H]4CC[C@]23C` gave an IC50 greater than 46 µM.
With `CCCCCCCCCCCCCCCC(=O)OC[C@H](COP(=O)([O-])OCC[N+](C)(C)C)OC(=O)CCCCCCCCCCCCCCC` the IC50 was greater than 46 µM.
In the case of `BrC2=CC=C(C=C2)[C@@H]([C@@]1=CC=CC=N1)CCN(C)C.O=C(O)/C=C\C(O)=O`, the IC50 is reported as greater than 46 µM.
`O=C1c2ccccc2C(=O)C1c1ccc(Br)cc1` gave an IC50 greater than 46 µM.
For `CN1CCN(C(=O)O[C@H]2c3nccnc3C(=O)N2c2ccc(Cl)cn2)CC1`, the IC50 was greater than 46 µM.
`CCOc1ccc2c3c1O[C@H]1[C@@H](O)C=C[C@H]4[C@@H](C2)N(C)CC[C@@]341` showed an IC50 greater than 46 µM.
`O=C1C=CC([C@](N)2CC(C)=C3)=C(C[C@H]3/[C@]2=C\C)N1` was tested, and the IC50 was greater than 46 µM.
In the case of `Nc1nc(N)c(-c2ccccc2)s1`, the IC50 is reported as greater than 46 µM.
With `Cc1nc2ccccc2n1Cc1ccc(Cl)cc1` the IC50 was greater than 46 µM.
With `O=C(O)C(Cl)(Cl)Cl` the IC50 was greater than 46 µM.
Work on `COc1ccc2cc1Oc1cc3c(cc1OC)CC[N+](C)(C)[C@H]3Cc1ccc(cc1)Oc1c(OC)c(OC)cc3c1[C@@H](C2)[N+](C)(C)CC3.[I-].[I-]` yielded an IC50 greater than 46 µM.
`Cl.Clc1ccc(Cn2c(CN3CCCC3)nc3ccccc32)cc1` was tested, and the IC50 was greater than 46 µM.
`O=C1C2CC3CC1CC(O)(C3)C2` was tested, and the IC50 was greater than 46 µM.
`CCN[C@@H]1C[C@H](N)[C@@H](OC2OC(CN)=CCC2N)[C@H](O)[C@H]1O[C@H]1OC[C@](C)(O)[C@H](NC)[C@H]1O.CCN[C@@H]1C[C@H](N)[C@@H](OC2OC(CN)=CCC2N)[C@H](O)[C@H]1O[C@H]1OC[C@](C)(O)[C@H](NC)[C@H]1O.O=S(=O)(O)O.O=S(=O)(O)O.O=S(=O)(O)O.O=S(=O)(O)O.O=S(=O)(O)O` (stereo partly specified) showed an IC50 greater than 46 µM.
In the case of `COP(=S)(OC)Oc1ccc(SC)c(C)c1`, the IC50 is reported as greater than 46 µM.
In the case of `CCc1cn([C@H]2C[C@H](O)[C@@H](CO)O2)c(=O)[nH]c1=O`, the IC50 is reported as greater than 46 µM.
Work on `CC(=O)Nc1ccccc1` yielded an IC50 greater than 46 µM.
In the case of `CC(C)[N+](C)(CCC(C(N)=O)(c1ccccc1)c1ccccc1)C(C)C`, the IC50 is reported as greater than 46 µM.
`CCOc1ccc(S(=O)(=O)O)c2cccnc12` showed an IC50 greater than 46 µM.
`COc1c2occc2c(OC)c2c(=O)cc(C)oc12` showed an IC50 greater than 46 µM.
For `CO/N=C(\C(=O)N[C@@H]1C(=O)N2C(C(=O)[O-])=CCS[C@H]12)c1csc(N)n1.[Na+]`, the IC50 was greater than 46 µM.
Work on `CCOC(=O)/C=C(C)/C=C/C[C@@H](C)CCCC(C)C` yielded an IC50 greater than 46 µM.
`CC1(C)O[C@@H]2[C@@H](CO[C@@]3(COS(N)(=O)=O)OC(C)(C)O[C@@H]23)O1` gave an IC50 greater than 46 µM.
`CC(C)(C)NCC(O)c1cc(Cl)c(N)c(Cl)c1` (stereo unspecified) was tested, and the IC50 was greater than 46 µM.
With `Cc1cc(=O)oc2cc(O)ccc12` the IC50 was greater than 46 µM.
